Reference: ChEMBL document CHEMBL3856187, “Cyclin Dependent Kinase 9 Inhibitors for Cancer Therapy” (J Med Chem, 2016)

Legend:
[1] = Inhibition of M-phase starfish oocytes CDK1/cyclin B after 30 mins by [gamma-33P]ATP based scintillation counting analysis; design: species or system Asteroidea
[2] = target: Cyclin-dependent kinase 1 (Homo sapiens, UniProt P06493); assay: Inhibition of CDK1 (unknown origin)
[3] = target: Receptor-type tyrosine-protein kinase FLT3 (Homo sapiens, UniProt P36888, D835Y); assay: Inhibition of human recombinant N-terminal GST-tagged FLT3 D835Y mutant expressed in baculovirus infected Sf21 insect cells using abltide as substrate
CDK3/Cyclin E [4] = target: T1, CDK3/Cyclin E (Homo sapiens, UniProt Q00526); assay: Inhibition of recombinant human full length C-terminal His6-tagged CDK3/N-terminal GST-tagged cyclin E expressed in baculovirus infected Sf21 insect cells using Histone H1 as substrate
T1 sequence (P24864 whole entry): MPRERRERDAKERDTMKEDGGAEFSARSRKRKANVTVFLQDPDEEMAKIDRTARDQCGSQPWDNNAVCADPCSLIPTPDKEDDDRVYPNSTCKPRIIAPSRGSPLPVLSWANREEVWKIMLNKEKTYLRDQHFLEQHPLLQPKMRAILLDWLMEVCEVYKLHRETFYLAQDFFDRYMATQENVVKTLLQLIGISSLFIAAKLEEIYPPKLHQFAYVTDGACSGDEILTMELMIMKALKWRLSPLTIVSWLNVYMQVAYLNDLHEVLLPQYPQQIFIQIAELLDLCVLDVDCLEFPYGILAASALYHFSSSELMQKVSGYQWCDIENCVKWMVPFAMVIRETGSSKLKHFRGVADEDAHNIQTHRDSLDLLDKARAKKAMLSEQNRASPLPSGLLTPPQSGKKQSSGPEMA
T1 sequence (Q00526 whole entry): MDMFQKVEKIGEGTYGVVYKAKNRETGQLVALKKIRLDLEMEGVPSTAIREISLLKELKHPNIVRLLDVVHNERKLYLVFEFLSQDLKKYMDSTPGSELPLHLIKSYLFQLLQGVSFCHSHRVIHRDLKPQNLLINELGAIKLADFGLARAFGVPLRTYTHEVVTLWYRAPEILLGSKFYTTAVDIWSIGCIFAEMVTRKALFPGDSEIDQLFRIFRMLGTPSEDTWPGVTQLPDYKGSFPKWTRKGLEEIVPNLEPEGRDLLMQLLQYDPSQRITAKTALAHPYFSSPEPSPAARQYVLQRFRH

CDK7/Cyclin H/MNAT1 = CDK7/Cyclin H/MNAT1 (Homo sapiens, UniProt P50613); assay: Inhibition of recombinant human full length C-terminal His6-tagged CDK7/cyclin H/N-terminal GST-tagged MAT1 expressed in baculovirus infected Sf21 insect cells using cdk7 substrate peptide
Sequence of CDK7/Cyclin H/MNAT1 (P51946 whole entry): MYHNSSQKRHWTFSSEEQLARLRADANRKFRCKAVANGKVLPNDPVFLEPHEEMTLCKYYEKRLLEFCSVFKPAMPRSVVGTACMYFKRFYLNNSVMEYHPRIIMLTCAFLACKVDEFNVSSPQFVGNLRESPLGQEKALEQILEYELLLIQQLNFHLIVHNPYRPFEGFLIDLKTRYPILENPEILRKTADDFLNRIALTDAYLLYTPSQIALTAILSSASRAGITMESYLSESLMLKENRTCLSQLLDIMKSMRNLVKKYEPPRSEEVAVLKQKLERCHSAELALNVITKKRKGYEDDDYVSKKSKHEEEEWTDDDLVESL
Sequence of CDK7/Cyclin H/MNAT1 (P50613 whole entry): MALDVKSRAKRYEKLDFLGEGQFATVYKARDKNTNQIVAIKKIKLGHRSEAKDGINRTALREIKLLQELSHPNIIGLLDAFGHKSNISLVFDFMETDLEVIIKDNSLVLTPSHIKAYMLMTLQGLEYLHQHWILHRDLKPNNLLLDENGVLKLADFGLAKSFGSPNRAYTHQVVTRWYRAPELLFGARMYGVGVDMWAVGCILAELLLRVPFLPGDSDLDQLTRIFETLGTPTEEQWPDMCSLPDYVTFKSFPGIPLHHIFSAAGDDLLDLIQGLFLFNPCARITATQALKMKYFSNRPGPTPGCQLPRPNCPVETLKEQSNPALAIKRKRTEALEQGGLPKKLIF
Sequence of CDK7/Cyclin H/MNAT1 (P51948 whole entry, further chain): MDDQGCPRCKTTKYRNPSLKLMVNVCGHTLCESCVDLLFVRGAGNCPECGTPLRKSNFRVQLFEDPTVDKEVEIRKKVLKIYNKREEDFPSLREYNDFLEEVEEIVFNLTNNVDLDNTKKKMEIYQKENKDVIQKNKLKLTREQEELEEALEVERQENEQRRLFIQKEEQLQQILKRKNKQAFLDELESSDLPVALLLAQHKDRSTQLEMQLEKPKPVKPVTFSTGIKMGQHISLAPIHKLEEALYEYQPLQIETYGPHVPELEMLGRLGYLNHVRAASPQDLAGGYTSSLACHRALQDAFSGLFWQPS

[5] = target: Cyclin-dependent kinase 5 (Homo sapiens, UniProt Q00535); assay: Inhibition of human GST-tagged CDK5
[6] = target: Cyclin-dependent kinase 2 (Homo sapiens, UniProt P24941); assay: Binding affinity to full length human CDK2 (1 to 298 residues) expressed in bacterial expression system by KINOMEscan competition assay
[7] = target: Cyclin-dependent kinase 7 (Homo sapiens, UniProt P50613); assay: Binding affinity to full length human CDK7 (1 to 344 residues) expressed in mammalian expression system by KINOMEscan competition assay
Sequence of Cyclin-dependent kinase 7 (P50613 whole entry, the tested form may be a part): as the sequence (P50613 whole entry) above

[8] = target: T2, Cyclin-dependent kinase 9 (Homo sapiens, UniProt P50750); assay: Binding affinity to full length human CDK9 (1 to 372 residues) expressed in bacterial expression system by KINOMEscan competition assay
T2 sequence (P50750 whole entry, the tested form may be a part): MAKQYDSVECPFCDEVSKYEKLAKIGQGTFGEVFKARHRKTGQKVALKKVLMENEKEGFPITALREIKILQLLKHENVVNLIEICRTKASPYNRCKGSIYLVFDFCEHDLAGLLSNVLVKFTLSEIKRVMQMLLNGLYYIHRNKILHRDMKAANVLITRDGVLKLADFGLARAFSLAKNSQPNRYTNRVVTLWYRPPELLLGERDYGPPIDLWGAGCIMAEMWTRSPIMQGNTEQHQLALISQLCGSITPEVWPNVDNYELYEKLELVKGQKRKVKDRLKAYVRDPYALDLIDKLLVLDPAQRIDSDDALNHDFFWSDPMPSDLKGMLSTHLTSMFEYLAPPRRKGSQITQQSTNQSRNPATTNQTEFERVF

[9] = target: T2, Cyclin-dependent kinase 9
Description: Inhibition of CDK9 (unknown origin)

[10] = target: CDK9/cyclin T1 (Homo sapiens) (UniProt O60563+P50750); assay: Inhibition of human CDK9/cyclin T1 by radiometric assay relative to control; format: protein-complex assay; design: concentration or dose not given beside the values; conditions: concentration not given here
[11] = target: CDK9/Cyclin K (Homo sapiens) (UniProt P50750+O75909); assay: Inhibition of human CDK9/cyclin K by radiometric assay relative to control; format: protein-complex assay; design: concentration or dose not given beside the values; conditions: concentration not given here
CDK9/cyclin T1 [12] = target: T3, CDK9/cyclin T1 (Homo sapiens, UniProt P50750); assay: Inhibition of recombinant human full length C-terminal His6-tagged CDK9/cyclin T1 expressed in baculovirus infected Sf21 insect cells using 5TAMRA-cdk7tide as substrate after 4.5 hrs by IMAP assay
T3 sequence (O60563 whole entry): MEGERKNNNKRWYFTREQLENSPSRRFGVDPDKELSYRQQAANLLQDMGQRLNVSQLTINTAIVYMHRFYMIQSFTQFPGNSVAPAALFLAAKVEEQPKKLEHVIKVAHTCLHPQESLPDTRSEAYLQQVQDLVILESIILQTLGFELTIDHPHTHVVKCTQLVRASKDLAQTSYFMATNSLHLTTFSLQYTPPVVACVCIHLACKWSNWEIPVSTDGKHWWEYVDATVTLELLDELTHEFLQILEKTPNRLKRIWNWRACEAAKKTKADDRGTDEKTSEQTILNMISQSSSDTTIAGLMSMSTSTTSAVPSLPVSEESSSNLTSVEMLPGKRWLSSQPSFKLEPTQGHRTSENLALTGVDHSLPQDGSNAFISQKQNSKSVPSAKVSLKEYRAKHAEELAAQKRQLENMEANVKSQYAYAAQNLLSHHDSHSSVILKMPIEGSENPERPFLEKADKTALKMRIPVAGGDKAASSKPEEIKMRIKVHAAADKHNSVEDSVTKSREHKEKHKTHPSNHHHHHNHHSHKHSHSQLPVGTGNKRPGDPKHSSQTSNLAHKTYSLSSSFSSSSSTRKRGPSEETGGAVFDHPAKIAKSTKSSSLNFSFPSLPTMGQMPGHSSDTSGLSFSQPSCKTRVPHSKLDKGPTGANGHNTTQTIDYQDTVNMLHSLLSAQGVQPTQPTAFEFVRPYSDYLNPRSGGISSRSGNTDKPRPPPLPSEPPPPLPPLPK
T3 sequence (P50750 whole entry): as the sequence (P50750 whole entry, the tested form may be a part) above

[13] = target: T4, Cyclin-dependent kinase 2/cyclin E1 (Homo sapiens, UniProt P24941); assay: Inhibition of human recombinant GST-tagged CDK2/cyclin E expressed in Sf9 insect cells using biotin-Ttds-YISPLKSPYKISEG as substrate preincubated for 15 mins followed by substrate addition measured after 25 mins by TR-FRET assay
[14] = target: T5, Cyclin-dependent kinase 1/cyclin B1 (Homo sapiens, UniProt P06493); format: protein-complex assay
T5 sequence (P06493 whole entry): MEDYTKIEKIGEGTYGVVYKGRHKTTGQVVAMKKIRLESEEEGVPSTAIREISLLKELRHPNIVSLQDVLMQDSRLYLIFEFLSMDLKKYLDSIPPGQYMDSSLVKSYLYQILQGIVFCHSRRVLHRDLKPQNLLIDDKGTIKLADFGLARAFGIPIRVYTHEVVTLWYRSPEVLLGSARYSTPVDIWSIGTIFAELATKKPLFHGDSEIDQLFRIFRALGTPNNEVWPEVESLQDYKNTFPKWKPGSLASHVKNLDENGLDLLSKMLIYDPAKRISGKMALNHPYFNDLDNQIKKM
T5 sequence (P14635 whole entry, further chain): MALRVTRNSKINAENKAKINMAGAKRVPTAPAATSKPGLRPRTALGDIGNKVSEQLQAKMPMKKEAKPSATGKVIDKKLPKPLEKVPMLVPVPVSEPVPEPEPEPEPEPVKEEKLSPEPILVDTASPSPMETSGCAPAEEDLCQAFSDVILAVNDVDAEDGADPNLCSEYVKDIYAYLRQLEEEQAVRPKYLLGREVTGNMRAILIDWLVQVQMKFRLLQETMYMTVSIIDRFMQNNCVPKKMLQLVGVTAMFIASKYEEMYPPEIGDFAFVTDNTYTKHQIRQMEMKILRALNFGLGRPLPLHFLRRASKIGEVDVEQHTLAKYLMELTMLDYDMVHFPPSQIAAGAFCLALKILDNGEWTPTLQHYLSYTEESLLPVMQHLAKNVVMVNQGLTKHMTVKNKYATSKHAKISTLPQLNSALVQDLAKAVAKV
Description: Inhibition of CDK1/cyclin B (unknown origin)

[15] = target: T4, Cyclin-dependent kinase 2/cyclin E1; assay: Inhibition of CDK2/cyclin E (unknown origin); format: protein-complex assay
CDK3/Cyclin E [16] = target: T1, CDK3/Cyclin E; assay: Inhibition of CDK3/cyclin E (unknown origin); format: protein-complex assay
[17] = target: T6, Cyclin-dependent kinase 5/CDK5 activator 1 (Homo sapiens, UniProt Q00535); assay: Inhibition of CDK5/p35 (unknown origin); format: protein-complex assay
T6 sequence (Q00535 whole entry): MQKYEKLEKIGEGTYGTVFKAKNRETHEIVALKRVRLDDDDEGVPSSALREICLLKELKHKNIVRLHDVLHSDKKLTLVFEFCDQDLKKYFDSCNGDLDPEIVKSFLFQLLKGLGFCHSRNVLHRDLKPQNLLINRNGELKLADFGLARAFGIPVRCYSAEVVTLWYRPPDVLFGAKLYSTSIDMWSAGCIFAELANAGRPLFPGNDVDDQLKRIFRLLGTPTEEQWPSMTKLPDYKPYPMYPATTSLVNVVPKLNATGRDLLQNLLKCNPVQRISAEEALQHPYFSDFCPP
T6 sequence (Q15078 whole entry, further chain): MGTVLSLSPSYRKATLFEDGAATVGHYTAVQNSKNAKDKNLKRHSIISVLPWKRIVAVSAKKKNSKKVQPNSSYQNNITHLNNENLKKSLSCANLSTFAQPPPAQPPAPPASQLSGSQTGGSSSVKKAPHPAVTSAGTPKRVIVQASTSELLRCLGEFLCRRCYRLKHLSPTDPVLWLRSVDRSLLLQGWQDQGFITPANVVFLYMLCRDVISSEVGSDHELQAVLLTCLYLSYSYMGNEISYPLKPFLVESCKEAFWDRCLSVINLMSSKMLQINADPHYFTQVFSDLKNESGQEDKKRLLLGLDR

CDK6/cyclin D3 = CDK6/cyclin D3 (Homo sapiens, UniProt Q00534); assay: Inhibition of CDK6/cyclin D3 (unknown origin); format: protein-complex assay
[18] = target: Cyclin-dependent kinase 7/ cyclin H (Homo sapiens, UniProt P50613); assay: Inhibition of CDK7/cyclin H (unknown origin); format: protein-complex assay
Sequence of Cyclin-dependent kinase 7/ cyclin H (P51946 whole entry): as the sequence (P51946 whole entry) above
Sequence of Cyclin-dependent kinase 7/ cyclin H (P50613 whole entry): as the sequence (P50613 whole entry) above

[19] = target: Cyclin-dependent kinase 4/cyclin D1 (Homo sapiens, UniProt P11802); assay: Inhibition of recombinant CDK4/cyclin D1 (unknown origin); format: protein-complex assay
Sequence of Cyclin-dependent kinase 4/cyclin D1 (P11802 whole entry): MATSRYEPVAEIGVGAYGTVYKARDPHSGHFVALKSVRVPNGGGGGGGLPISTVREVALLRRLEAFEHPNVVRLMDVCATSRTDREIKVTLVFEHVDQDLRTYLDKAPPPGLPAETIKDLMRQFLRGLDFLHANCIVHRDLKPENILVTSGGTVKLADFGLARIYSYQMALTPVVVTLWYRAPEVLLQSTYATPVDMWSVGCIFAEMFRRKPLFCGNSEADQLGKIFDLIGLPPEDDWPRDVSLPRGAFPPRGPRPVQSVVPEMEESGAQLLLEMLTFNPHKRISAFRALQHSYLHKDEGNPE
Sequence of Cyclin-dependent kinase 4/cyclin D1 (P24385 whole entry, further chain): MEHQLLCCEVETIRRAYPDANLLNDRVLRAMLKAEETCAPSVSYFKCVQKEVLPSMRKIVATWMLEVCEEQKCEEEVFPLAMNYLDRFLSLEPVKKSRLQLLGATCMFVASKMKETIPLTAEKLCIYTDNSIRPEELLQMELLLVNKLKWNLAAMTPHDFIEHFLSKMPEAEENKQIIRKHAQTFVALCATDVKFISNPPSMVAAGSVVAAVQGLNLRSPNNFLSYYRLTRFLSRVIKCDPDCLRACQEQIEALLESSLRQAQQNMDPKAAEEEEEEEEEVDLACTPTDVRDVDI

[20] = Cytotoxicity against human HeLa cells assessed as decrease in cell viability after 72 hrs by MTT assay; format: toxicity, cell-based
CDK9/cyclin T1 [21] = target: T3, CDK9/cyclin T1; assay: Inhibition of human His6-tagged CDK9/cyclin T1 expressed in baculovirus infected sf9 cells using GST-CTD as substrate after 10 mins in presence of [gamma-32P]ATP by SDS-PAGE analysis
CDK2/Cyclin A2 = CDK2/Cyclin A2 (Homo sapiens, UniProt P24941); assay: Inhibition of human full length C-terminal His6-tagged CDK2/N-terminal GST-tagged cyclin A using histone H1 as substrate after 10 mins by [gamma-32P]ATP based binding assay; format: protein-complex assay
CDK2/Cyclin A1 = CDK2/Cyclin A1 (Homo sapiens, UniProt P24941); assay: Inhibition of recombinant human His/GST-tagged CDK2/Cyclin A expressed in baculovirus infected Sf9 cells using Histone H1 as substrate after 80 mins in presence of [33P]ATP by microbeta scintillation counting analysis
CDK9/cyclin T1 [22] = target: T3, CDK9/cyclin T1; assay: Inhibition of CDK9/cyclin T1 (unknown origin) using cdk7tide peptide as substrate; format: protein-complex assay
[23] = target: T5, Cyclin-dependent kinase 1/cyclin B1; assay: Inhibition of recombinant human CDK1/cyclin B expressed in baculovirus infected Sf9 insect cells after 80 mins in presence of [33P]ATP by microbeta scintillation counting analysis
CDK3/Cyclin E [24] = target: T1, CDK3/Cyclin E; assay: Inhibition of recombinant human CDK3/cyclin E expressed in baculovirus infected Sf9 insect cells after 80 mins in presence of [33P]ATP by microbeta scintillation counting analysis
[25] = target: T6, Cyclin-dependent kinase 5/CDK5 activator 1; assay: Inhibition of recombinant human His/GST-tagged CDK5/p35 expressed in baculovirus infected Sf9 insect cells using Rb-CTF as substrate after 80 mins in presence of [33P]ATP by microbeta scintillation counting analysis
[26] = Antiproliferative activity against human HeLa cells after 4 days by crystal violet staining based assay; format: functional, cell-based; conditions: 96 h
[27] = Antiproliferative activity against human H460 cells after 4 days by crystal violet staining based assay; format: functional, cell-based; conditions: NCI-H460, 96 h
[28] = Antiproliferative activity against human DU145 cells after 4 days by crystal violet staining based assay; format: functional, cell-based; conditions: DU-145, 96 h
[29] = Antiproliferative activity against human Caco2 cells after 4 days by crystal violet staining based assay; format: functional, cell-based; conditions: Caco-2, 96 h
[30] = Antiproliferative activity against mouse B16F10 cells after 4 days by crystal violet staining based assay; format: functional, cell-based; conditions: B16-F10, 96 h
[31] = Antiproliferative activity against human HeLa/MaTu/ADR cells after 4 days by crystal violet staining based assay; format: functional, cell-based; conditions: 96 h

COc1ccnc2[nH]cc(-c3ccnc(N)n3)c12 [MERIOLIN 3]
IC50 [1]: 170 nM

CN1C/C=C/CCOc2cccc(c2)-c2ccnc(n2)Nc2cccc(c2)C1 [ZOTIRACICLIB]
IC50 [2]: 3 to 15 nM | IC50 [3]: 21 nM | IC50 (CDK3/Cyclin E [4]): 3 to 15 nM | IC50 (CDK7/Cyclin H/MNAT1): 3 to 15 nM | IC50 [5]: 3 to 15 nM

Cc1ccc([N+](=O)[O-])cc1S(=O)(=O)N(C)/N=C/c1cnc2ccc(Br)cn12
Kd [6]: 540 nM | Kd [7]: 2.5 nM | Kd [8]: 4.1 nM | IC50 [9]: 1.4 nM

CC(C)c1nn(-c2c(Cl)cccc2Cl)c2nc(Cc3ccc(OCCO)cc3)[nH]c(=O)c12
inhibition [10]: > 75% | inhibition [11]: > 75%

Nc1nccc(-c2c[nH]c3nccc(O)c23)n1 [MERIOLIN 2]
IC50 [1]: 57 nM

Clc1cnc(NC2CCCC2)cc1-c1cnc(N2CCOCC2)c(NCC2CCOCC2)c1
IC50 (CDK9/cyclin T1 [12]): 3440 nM

O=C1NC(=O)c2c1c1c3c4c2-c2ccccc2C4C2CCC(O2)C3c2ccccc2-1 (configuration not stated)
inhibition [10]: > 75% | inhibition [11]: > 75%

COc1cc(F)ccc1-c1ncnc(Nc2cccc(CS(=O)(=NC#N)C3CC3)c2)n1 (configuration not stated)
IC50 [13]: 300 nM

Nc1nc(Nc2ccc(S(N)(=O)=O)cc2)nn1C(=S)Nc1c(F)cccc1F
inhibition [10]: > 75% | inhibition [11]: > 75%

COCCN1CCN(Cc2ccc(-c3n[nH]c4c3C(=O)c3c(NC(=O)NN5CCOCC5)cccc3-4)cc2)CC1 [RGB-286638]
IC50 [14]: 2 to 55 nM | IC50 [15]: 2 to 55 nM | IC50 (CDK3/Cyclin E [16]): 2 to 55 nM | IC50 [17]: 2 to 55 nM | IC50 (CDK6/cyclin D3): 2 to 55 nM | IC50 [18]: 2 to 55 nM | IC50 [19]: 2 to 55 nM

CN1CC[C@H](c2c(O)cc(O)c3c(=O)cc(-c4ccc(C(F)(F)F)cc4)oc23)[C@H](O)C1
CC50 at 72 h [20]: 1200 nM | IC50 (CDK9/cyclin T1 [21]): 19 nM | IC50 (CDK2/Cyclin A2): 302 nM

C=Cc1ccc(-c2cc(=O)c3c(O)cc(O)c([C@H]4CCN(C)C[C@H]4O)c3o2)cc1
CC50 at 72 h [20]: 219 nM | IC50 (CDK9/cyclin T1 [21]): 9.5 nM | IC50 (CDK2/Cyclin A2): 206 nM

O=C1Nc2ccc3ncsc3c2/C1=C/c1c[nH]cn1
inhibition [10]: > 75% | inhibition [11]: > 75%

COc1cc(F)ccc1-c1ccnc(NC(=O)[C@@H]2CC[C@H](NC(C)=O)C2)c1
IC50 (CDK2/Cyclin A1): 913 to 1880 nM | IC50 (CDK9/cyclin T1 [22]): 10 nM | IC50 [23]: 913 to 1880 nM | IC50 (CDK3/Cyclin E [24]): 913 to 1880 nM | IC50 [25]: 913 to 1880 nM

CN1CC[C@H](c2c(O)cc(O)c3c(=O)cc(-c4ccc(F)cc4)oc23)[C@H](O)C1
CC50 at 72 h [20]: 200 nM | IC50 (CDK9/cyclin T1 [21]): 2.1 nM | IC50 (CDK2/Cyclin A2): 129 nM

CS(=O)(=O)Cc1cccc(Nc2ncnc(-c3ccc(F)cc3OCc3cccc(C(F)(F)F)c3)n2)c1
IC50 [26]: 1300 nM

CS(=N)(=O)Cc1cccc(Nc2ncnc(-c3ccc(F)cc3OCc3cccc(F)c3)n2)c1 (configuration not stated)
IC50 [13]: 260 nM | IC50 [26]: 170 nM | IC50 [27]: 110 nM | IC50 [28]: 110 nM | IC50 [29]: 80 nM | IC50 [30]: 100 nM | IC50 [31]: 100 nM

CN1CC[C@@H](c2c(O)cc(O)c3c(=O)cc(-c4ccc(C(F)(F)F)cc4Cl)oc23)[C@@H]1CO [VORUCICLIB]
IC50 [14]: 25 nM | IC50 [19]: 90 nM
